From patent US20210355105A1, “REGULATOR OF NITROGEN-CONTAINING HETEROAROMATIC DERIVATIVES, PREPARATION METHOD THEREFOR AND USE THEREOF” (Jiangsu Hansoh Pharmaceutical Group Co., Ltd., priority 2018, published 2021)

Experiments:
[1] = Pharmacokinetics assay in mice, oral administration; type: in vivo; conditions: mouse; male Balb/c mice, oral 5 mg/kg, plasma
Protocol: Balb/c mice were used as test animals.
5 g of hydroxyethyl cellulose (HEC, CMC-Na, viscosity: 800-1200 Cps) was dissolved in 1000 mL of purified water, and 10 g of Tween80 was added. The solution was mixed well to form a clear solution. […] The solution was subjected to ultrasound for 10 minutes to obtain a colorless and clear solution with a concentration of 0.5 mg/mL.
After an overnight fast, male Balb/c mice were administrated orally with the test compounds at an administration dose of 5 mg/kg and an administration volume of 10 mL/kg.
Blood was taken before administration and at 0.25 hour, 0.5 hour, 1 hour, 2 hours, 4 hours, 6 hours, 8 hours and 24 hours after administration. The blood samples were stored in EDTA-2K tubes, and centrifuged for 6 minutes at 6000 rpm, at 4° C. to separate the blood plasma. The plasma samples were stored at −80° C. The mice were fed four hours after administration.

hERG potassium channel = biological target: T1, hERG potassium channel (Homo sapiens, UniProt Q12809); experiment: Inhibitory activity on hERG potassium channel (Qpatch, CHO-hERG cells); type: cell-based; conditions: six concentrations up to 40 μM, read-out: hERG (inhibitory effect on hERG current)
T1 construct: expressed in transfected cells; host or cells: CHO-hERG cells
T1 sequence (Q12809 whole entry): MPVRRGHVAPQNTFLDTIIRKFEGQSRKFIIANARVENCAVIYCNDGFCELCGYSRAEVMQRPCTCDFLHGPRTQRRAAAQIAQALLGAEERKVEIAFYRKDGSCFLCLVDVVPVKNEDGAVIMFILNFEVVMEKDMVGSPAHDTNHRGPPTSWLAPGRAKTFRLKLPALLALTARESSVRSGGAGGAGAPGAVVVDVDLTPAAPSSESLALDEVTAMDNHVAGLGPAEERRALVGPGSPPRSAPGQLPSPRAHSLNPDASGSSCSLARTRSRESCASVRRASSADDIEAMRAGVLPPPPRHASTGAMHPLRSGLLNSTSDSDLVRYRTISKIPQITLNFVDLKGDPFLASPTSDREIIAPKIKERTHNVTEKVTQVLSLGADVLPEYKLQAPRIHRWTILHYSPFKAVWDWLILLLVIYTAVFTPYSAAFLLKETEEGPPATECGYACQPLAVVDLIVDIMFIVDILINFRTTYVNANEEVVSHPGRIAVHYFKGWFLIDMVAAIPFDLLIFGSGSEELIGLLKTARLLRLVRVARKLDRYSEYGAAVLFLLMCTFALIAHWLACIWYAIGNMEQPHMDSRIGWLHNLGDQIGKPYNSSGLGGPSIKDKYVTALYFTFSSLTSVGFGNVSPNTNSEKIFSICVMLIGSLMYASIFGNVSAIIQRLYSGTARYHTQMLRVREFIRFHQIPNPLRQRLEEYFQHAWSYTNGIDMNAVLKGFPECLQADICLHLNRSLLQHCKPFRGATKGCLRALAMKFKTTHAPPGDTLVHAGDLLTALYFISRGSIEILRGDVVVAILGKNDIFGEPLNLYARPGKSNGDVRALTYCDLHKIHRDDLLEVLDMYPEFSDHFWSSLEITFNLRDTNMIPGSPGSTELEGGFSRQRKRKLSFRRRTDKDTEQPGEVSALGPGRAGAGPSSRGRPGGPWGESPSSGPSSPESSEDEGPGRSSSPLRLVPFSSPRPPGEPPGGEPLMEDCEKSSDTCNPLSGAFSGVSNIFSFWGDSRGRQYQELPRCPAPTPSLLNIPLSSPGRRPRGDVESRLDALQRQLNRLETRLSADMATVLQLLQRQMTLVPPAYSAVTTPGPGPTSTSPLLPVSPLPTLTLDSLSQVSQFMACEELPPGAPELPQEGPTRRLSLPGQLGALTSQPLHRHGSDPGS
Protocol: 8.1.1 CHO-hERG cells were cultured in a 175 cm^2 culture flask. When the cells were grown to a density of 60 to 80%, the culture solution was removed, and the cells were washed once with 7 mL of PBS, and then 3 mL of Detachin was added for digestion of the cells.
8.1.2 After the digestion was complete, the cells were neutralized by adding 7 mL of the culture solution and then centrifuged. The supernatant was removed, and then 5 mL of the culture solution was added for resuspension to ensure a cell density of 2-5×10^6 cells/mL.
The single-cell high-impedance sealing and whole-cell pattern formation processes were both completed automatically by the Qpatch instrument. After the whole-cell recording pattern was obtained, the cells were clamped at −80 millivolts. A pre-voltage of −50 millivolts was applied for 50 milliseconds prior to the application of a depolarizing stimulus of +40 millivolts for 5 seconds, and then the cells were repolarized to −50 millivolts and maintained for 5 seconds, and then returned back to −80 millivolts. This voltage stimulation was applied every 15 seconds, and data were recorded for 2 minutes, and thereafter the extracellular fluid was administered and data were recorded for 5 minutes, and then the administration process was started. The compound was administered from the lowest test concentration, and 2.5 minutes were given for each test concentration. After all the concentrations of the compound were administered, […] Cisapride as a positive control compound was administered. At least three cells (n≥3) were tested for each concentration.
8.4.1 20 mM compound mother solution was diluted with the extracellular fluid. 5 μL of the 20 mM compound mother solution was diluted 500 times to 40 μM by adding 2495 μL of the extracellular fluid, and then 3-fold serial dilutions were performed sequentially in the extracellular fluid containing 0.2% DMSO to obtain a final concentration to be tested.
8.4.2 The highest test concentration was 40 μM, and there were six concentrations in total, i.e., 40, 13.33, 4.44, 1.48, 0.49, and […], respectively.
The experimental data were analyzed by XLFit software.

[2] = tested on: human pancreatic cancer cell MiaPaca 2 xenograft; experiment: Tumor inhibition test on MiaPaca 2 xenograft model; type: in vivo, Balb/c nude mice; conditions: intragastric
Protocol: Balb/c nude mice were used as test animals. In vivo pharmacodynamic test was carried out on human pancreatic cancer cell MiaPaca 2 xenograft (CDX) model to evaluate the anti-tumor effect of the test compounds.
MiaPaca 2 cells were taken from the cell bank and thawed. The cells were added to the DMEM medium (containing 10% FBS, 1% Glu and 1% P/S), and incubated in the CO2 incubator (the temperature of the incubator was 37° C., and the CO2 concentration was 5%). After the cells covered 80-90% of the bottom of the culture flask, the cells were passaged. After passage, the cells continued to be incubated in the CO2 incubator. The process was repeated until the number of cells met the inoculation requirement of the in vivo pharmacodynamic test. The cells in logarithmic growth phase were collected, and counted by the automatic cell counter. According to the counting results, the cells were resuspended with PBS and Matrigel (volume ratio: 1:1) to obtain a cell suspension (density: 8×10^7/ml), which was placed in an ice box for later use.
Female Balb/c nude mice (6-8 weeks old, body weight: about 18-22 grams) were used as test animals. The mice were maintained in an environment free of special pathogens and in a single ventilated cage (five mice per cage). All cages, bedding and water were disinfected before use. All animals had free access to standard certified commercial laboratory animal diets. The nude mice were marked with a disposable universal ear tag for rats and mice before the test. The skin of the inoculation site was disinfected with 75% medical alcohol before the inoculation. Each mouse was inoculated with 0.1 ml of MiaPaca 2 tumor cells (containing 8*10^6 cells) subcutaneously on the right back. When the average tumor volume reached 100 to 200 mm^3, administration was carried out. The test compounds were administered intragastrically daily. The tumor volume (mm^3) was measured with the vernier caliper twice a week. The tumor volume calculation formula: V=0.5*D*d*d, wherein D and d represent the long diameter and short diameter of the tumor, respectively. The anti-tumor efficacy was determined by dividing the average tumor increase volume of the compound-treated animals by the average tumor increase volume of the untreated animals. Tumor growth inhibition rate calculation formula: […]
All animals were euthanized after the experiment.

[3] = Pharmacokinetics assay in rats, oral administration; type: in vivo; conditions: rat; male SD rats, oral 5 mg/kg, plasma
Protocol: SD rats were used as test animals.
5 g of hydroxyethyl cellulose (HEC, CMC-Na, viscosity: 800-1200 Cps) was dissolved in 1000 mL of purified water, and 10 g of Tween80 was added. The solution was mixed well to form a clear solution.
The solution was shaked well and subjected to ultrasound for 15 minutes to obtain a colorless and clear solution with a concentration of 0.5 mg/mL.
After an overnight fast, male SD rats (3 rats per group) were administrated orally with the test compounds at an administration dose of 5 mg/kg and an administration volume of 10 mL/kg.
0.2 mL of blood was taken from jugular vein before administration and at 0.5 hour, 1.0 hour, 2.0 hours, 4.0 hours, 6.0 hours, 8.0 hours and 24.0 hours after administration. The blood samples were stored in EDTA-2K tubes, and centrifuged for 6 minutes at 6000 rpm, at 4° C. to separate the blood plasma. The plasma samples were stored at −80° C. The rats were fed four hours after administration.

Nc1nccc(Sc2cnc(N3CCC4(CC=C(C5CC5)[C@H]4N)CC3)cn2)c1Cl [Example 144, (S)-8-(5-((2-amino-3-chloropyridin-4-yl)thio)pyrazin-2-yl)-2-cyclopropyl-8-azaspiro[4.5]dec-2-en-1-amine]
AUC(0-inf) [1]: 5390 ng·h/mL
Cmax [1]: 436 ng/mL
MRT [1]: 9.08 h
Tmax [1]: 1 h
IC50 (hERG potassium channel): 2.34 µM
Tumor volume (Mean ± SD) Day 0 ([2]; 3 mg/kg QD × 3 w): 172 ± 26 (173 ± 28) mm^3
TGI Day 21 ([2]; 3 mg/kg QD × 3 w): 95.07%
Tumor volume (Mean ± SD) Day 21 ([2]; 3 mg/kg QD × 3 w): 216 ± 66 mm^3
ΔT/ΔC Day 21 ([2]; 3 mg/kg QD × 3 w): 4.93%
AUC(0-inf) [3]: 3310 ng·h/mL
Cmax [3]: 247 ng/mL
MRT [3]: 9.24 h
Tmax [3]: 1 h
half-life [3]: 6.49 h

Cc1nc(N2CCC3(CC2)Cc2ncsc2[C@H]3N)c(CO)nc1Sc1ccnc(N)c1Cl [Example 171, (S)-(6-((2-amino-3-chloropyridin-4-yl)thio)-3-(6-amino-4,6-dihydrospiro[cyclopenta[d]thiazole-5,4′-piperidin]-1′-yl)-5-methylpyrazin-2-yl)methanol]
AUC(0-inf) [1]: 2210 ng·h/mL
Cmax [1]: 475 ng/mL
MRT [1]: 4.34 h
Tmax [1]: 0.5 h
half-life [1]: 3.07 h
IC50 (hERG potassium channel): 18.8 µM
Tumor volume (Mean ± SD) Day 0 ([2]; 6 mg/kg QD × 3 w): 167 ± 26 (168 ± 32) mm^3
TGI Day 21 ([2]; 6 mg/kg QD × 3 w): 95.43%
Tumor volume (Mean ± SD) Day 21 ([2]; 6 mg/kg QD × 3 w): 198 ± 70 mm^3
ΔT/ΔC Day 21 ([2]; 6 mg/kg QD × 3 w): 4.57%
AUC(0-inf) [3]: 1780 ng·h/mL
Cmax [3]: 189 ng/mL
MRT [3]: 5.78 h
Tmax [3]: 1 h
half-life [3]: 3.69 h

Nc1nc(N2CCC3(CC2)Cc2ncsc2[C@H]3N)c(F)nc1Sc1ccnc(N)c1Cl [Example 181, (S)-1′-(6-amino-5-((2-amino-3-chloropyridin-4-yl)thio)-3-fluoropyrazin-2-yl)-4,6-dihydrospiro[cyclopenta[d]thiazole-5,4′-piperidin]-6-amine]
AUC(0-inf) [1]: 8160 ng·h/mL
Cmax [1]: 1380 ng/mL
MRT [1]: 5.07 h
Tmax [1]: 0.5 h
half-life [1]: 4.63 h
IC50 (hERG potassium channel): 21.9 µM
Tumor volume (Mean ± SD) Day 0 ([2]; 10 mg/kg QD × 3 w): 176 ± 36 (176 ± 39) mm^3
TGI Day 21 ([2]; 10 mg/kg QD × 3 w): 92.94%
Tumor volume (Mean ± SD) Day 21 ([2]; 10 mg/kg QD × 3 w): 240 ± 86 mm^3
ΔT/ΔC Day 21 ([2]; 10 mg/kg QD × 3 w): 7.06%
AUC(0-inf) [3]: 5890 ng·h/mL
Cmax [3]: 614 ng/mL
MRT [3]: 5.84 h
Tmax [3]: 2 h
half-life [3]: 3.55 h

Nc1nc(N2CCC3(CC2)Cc2ccccc2[C@H]3N)c(F)nc1Sc1ccnc(N)c1Cl [Example 179, (S)-1′-(6-amino-5-((2-amino-3-chloropyridin-4-yl)thio)-3-fluoropyrazin-2-yl)-1,3-dihydrospiro[indene-2,4′-piperidin]-1-amine]
AUC(0-inf) [1]: 2440 ng·h/mL
Cmax [1]: 179 ng/mL
MRT [1]: 7.92 h
Tmax [1]: 0.5 h
half-life [1]: 5.23 h
IC50 (hERG potassium channel): 4.51 µM
Tumor volume (Mean ± SD) Day 0 ([2]; 6 mg/kg QD × 3 w): 166 ± 28 (168 ± 32) mm^3
TGI Day 21 ([2]; 6 mg/kg QD × 3 w): 91.00%
Tumor volume (Mean ± SD) Day 21 ([2]; 6 mg/kg QD × 3 w): 227 ± 37 mm^3
ΔT/ΔC Day 21 ([2]; 6 mg/kg QD × 3 w): 9.00%
AUC(0-inf) [3]: 3840 ng·h/mL
Cmax [3]: 201 ng/mL
MRT [3]: 15.2 h
Tmax [3]: 2 h
half-life [3]: 10.5 h
